# Assays:
# Bacillus subtilis 168CA = assay: Minimum Inhibitory Concentration (MIC) testing, broth microdilution, Bacillus subtilis; type: cell-based; details: Bacillus subtilis 168CA; read-out: Bacillus subtilis MICs Activity
# Summary of the method: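 Broth microdilution followed NCCLS M7-A5, in rich broth such as Mueller Hinton, inoculum at OD 0.09 diluted 1:100, compounds in 1.6% DMSO before inoculum. After 16–20 h at 37 °C, MIC was the lowest concentration without visible growth. Score A: ≦8 μg/ml, B: 16–64 μg/ml, C: >64 μg/ml.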
# [1] = tested on: Staphylococcus aureus ATCC29213; assay: Minimum Inhibitory Concentration (MIC) testing, broth microdilution, Staphylococcus aureus; type: cell-based; details: Staphylococcus aureus ATCC29213; read-out: Staphylococcus aureus MICs Activity
# Summary of the method: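 Broth microdilution per NCCLS M7-A5 in Mueller Hinton broth, with compound in 1.6% DMSO and inoculum at OD 0.09 diluted 1:100. Plates incubated 16–20 h at 37°C. MIC is the lowest concentration with no visible growth; scored A ≤8, B 16–64, C >64 μg/ml.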
MIC (Bacillus subtilis 168CA) [µg/mL],MIC [1] [µg/mL],SMILES
< 8,16 to 64,"CCCCOC(=O)COc1cccc(C(N)=O)c1F [Example 176, Butyl 2-[3-(aminocarbonyl)-2-fluorophenoxy]acetate]"
> 64,> 64,"Cc1cc(COc2ccc(F)c(C(N)=O)c2F)no1 [Example 182, 2,6-Difluoro-3-[(5-methyl-3-isoxazolyl)methoxy]benzenecarboxamide]"
16 to 64,16 to 64,"NC(=O)c1c(F)ccc(OCc2ccco2)c1F [Example 183, 2,6-Difluoro-3-(2-furylmethoxy)benzenecarboxamide]"
16 to 64,16 to 64,"NC(=O)c1c(F)ccc(OCc2ccoc2)c1F [Example 184, 2,6-Difluoro-3-(3-furylmethoxy)benzenecarboxamide]"
> 64,> 64,"Cc1ccc(COc2ccc(F)c(C(N)=O)c2F)o1 [Example 185, 2,6-Difluoro-3-[(5-methyl-2-furyl)methoxy]benzenecarboxamide]"
< 8,16 to 64,"NC(=O)c1c(F)ccc(OCc2cccs2)c1F [Example 186, 2,6-Difluoro-3-(2-thienylmethoxy)benzenecarboxamide]"
16 to 64,16 to 64,"Cc1csc(COc2ccc(F)c(C(N)=O)c2F)c1 [Example 187, 2,6-Difluoro-3-[(4-methyl-2-thienyl)methoxy]benzenecarboxamide]"
16 to 64,16 to 64,"NC(=O)c1c(F)ccc(OCc2ccsc2)c1F [Example 188, 2,6-Difluoro-3-(3-thienylmethoxy)benzenecarboxamide]"
> 64,> 64,"NC(=O)c1c(F)ccc(OCc2cncs2)c1F [Example 189, 2,6-Difluoro-3-(1,3-thiazol-5-ylmethoxy)benzenecarboxamide]"
16 to 64,16 to 64,"Cc1nc(COc2ccc(F)c(C(N)=O)c2F)cs1 [Example 190, 2,6-Difluoro-3-[(2-methyl-1,3-thiazol-4-yl)methoxy]benzenecarboxamide]"
16 to 64,16 to 64,"NC(=O)c1c(F)ccc(OCc2nccs2)c1F [Example 191, 2,6-Difluoro-3-(1,3-thiazol-2-ylmethoxy)benzenecarboxamide]"
> 64,> 64,"Cc1cnc(COc2ccc(F)c(C(N)=O)c2F)s1 [Example 192, 2,6-Difluoro-3-[(5-methyl-1,3-thiazol-2-yl)methoxy]benzenecarboxamide]"
16 to 64,16 to 64,"Cc1csc(COc2ccc(F)c(C(N)=O)c2F)n1 [Example 193, 2,6-Difluoro-3-[(4-methyl-1,3-thiazol-2-yl)methoxy]benzenecarboxamide]"
> 64,> 64,"Cn1ccnc1COc1ccc(F)c(C(N)=O)c1F [Example 194, 2,6-Difluoro-3-[(1-methyl-1H-imidazol-2-yl)methoxy]benzenecarboxamide]"
< 8,16 to 64,"Cc1cccc(COc2ccc(F)c(C(N)=O)c2F)c1 [Example 195, 2,6-Difluoro-3-[(3-methylbenzyl)oxy]benzenecarboxamide]"
< 8,16 to 64,"CCOc1cccc(COc2ccc(F)c(C(N)=O)c2F)c1 [Example 196, 3-[(3-Ethoxybenzyl)oxy]-2,6-difluorobenzenecarboxamide]"
16 to 64,16 to 64,"Cc1cccc(COc2ccc(F)c(C(N)=O)c2F)n1 [Example 197, 2,6-Difluoro-3-[(6-methyl-2-pyridinyl)methoxy]benzenecarboxamide]"
< 8,16 to 64,"NC(=O)c1c(F)ccc(OCc2csc3ccccc23)c1F [Example 202, 3-(1-Benzothiophen-3-ylmethoxy)-2,6-difluorobenzenecarboxamide]"
16 to 64,16 to 64,"NC(=O)c1c(F)ccc(OCC2COc3ccccc3O2)c1F (stereo not drawn) [Example 204, 3-(2,3-Dihydro-1,4-benzodioxin-2-ylmethoxy)-2,6-difluorobenzenecarboxamide]"
< 8,< 8,"Cc1ccc2sc(COc3ccc(F)c(C(N)=O)c3F)cc2c1 [Example 205, 2,6-Difluoro-3-[(5-methyl-1-benzothiophen-2-yl)methoxy]benzenecarboxamide]"
< 8,> 64,"NC(=O)c1c(F)ccc(OCc2cc3ccccc3s2)c1F [Example 206, 3-(1-Benzothiophen-2-ylmethoxy)-2,6-difluorobenzenecarboxamide]"

MIC (Bacillus subtilis 168CA) [µg/mL],MIC [1] [µg/mL],SMILES
< 8,16 to 64,"NC(=O)c1c(F)ccc(OCc2cc3ccccc3o2)c1F [Example 207, 3-(1-Benzofuran-2-ylmethoxy)-2,6-difluorobenzenecarboxamide]"
16 to 64,> 64,"NC(=O)c1c(F)ccc(OCc2nc3ccccc3o2)c1F [Example 209, 3-(1,3-Benzoxazol-2-ylmethoxy)-2,6-difluorobenzenecarboxamide]"
< 8,< 8,"NC(=O)c1c(F)ccc(OCc2nc3cc(Cl)ccc3o2)c1F [Example 210, 3-[(5-Chloro-1,3-benzoxazol-2-yl)methoxy]-2,6-difluorobenzenecarboxamide]"
< 8,16 to 64,"Cc1ccc2nc(COc3ccc(F)c(C(N)=O)c3F)oc2c1 [Example 211, 2,6-Difluoro-3-[(6-methyl-1,3-benzoxazol-2-yl)methoxy]benzenecarboxamide]"
< 8,16 to 64,"Cc1ccc2oc(COc3ccc(F)c(C(N)=O)c3F)nc2c1 [Example 212, 2,6-Difluoro-3-[(5-methyl-1,3-benzoxazol-2-yl)methoxy]benzenecarboxamide]"
< 8,16 to 64,"CC(C)(C)c1ccc2oc(COc3ccc(F)c(C(N)=O)c3F)nc2c1 [Example 213, 3-[5-(tert-Butyl)-1,3-benzoxazol-2-yl]methoxy-2,6-difluorobenzenecarboxamide]"
16 to 64,16 to 64,"NC(=O)c1c(F)ccc(OCc2nc3cc([N+](=O)[O-])ccc3o2)c1F [Example 214, 2,6-Difluoro-3-[(5-nitro-1,3-benzoxazol-2-yl)methoxy]benzenecarboxamide]"
< 8,< 8,"NC(=O)c1c(F)ccc(OCc2nc3cc(F)ccc3s2)c1F [Example 216, 2,6-Difluoro-3-[(5-fluoro-1,3-benzothiazol-2-yl)methoxy]benzenecarboxamide]"
< 8,< 8,"NC(=O)c1cccc(OCc2nc3cc(Cl)ccc3s2)c1F [Example 219, 3-[(5-Chloro-1,3-benzothiazol-2-yl)methoxy]-2-fluorobenzenecarboxamide]"
< 8,< 8,"NC(=O)c1c(Cl)ccc(OCc2nc3cc(Cl)ccc3s2)c1F [Example 220, 6-Chloro-3-[(5-chloro-1,3-benzothiazol-2-yl)methoxy]-2-fluorobenzenecarboxamide]"
< 8,< 8,"NC(=O)c1c(F)ccc(OCc2nc3cc(Cl)ccc3s2)c1Cl [Example 221, 2-Chloro-3-[(5-chloro-1,3-benzothiazol-2-yl)methoxy]-6-fluorobenzenecarboxamide]"
16 to 64,16 to 64,"NC(=O)c1c(F)ccc(OCc2nc3c(Cl)cccc3s2)c1F [Example 226, 3-[(4-Chloro-1,3-benzothiazol-2-yl)methoxy]-2,6-difluorobenzenecarboxamide]"
< 8,< 8,"Cc1ccc2nc(COc3ccc(F)c(C(N)=O)c3F)sc2c1 [Example 229, 2,6-Difluoro-3-[(6-methyl-1,3-benzothiazol-2-yl)methoxy]benzenecarboxamide]"
< 8,< 8,"NC(=O)c1c(F)ccc(OCc2csc(-c3ccccc3)n2)c1F [Example 233, 2,6-Difluoro-3-[(2-phenyl-1,3-thiazol-4-yl)methoxy]benzenecarboxamide]"
< 8,< 8,"NC(=O)c1c(F)ccc(OCc2nc(-c3ccccc3)cs2)c1F [Example 235, 2,6-Difluoro-3-[(4-phenyl-1,3-thiazol-2-yl)methoxy]benzenecarboxamide]"
16 to 64,16 to 64,"NC(=O)c1c(F)ccc(OCc2csc(Nc3ccccc3)n2)c1F [Example 237, 3-[(2-Anilino-1,3-thiazol-4-yl)methoxy]-2,6-difluorobenzenecarboxamide]"
16 to 64,16 to 64,"NC(=O)c1c(F)ccc(OCc2noc(-c3ccccc3)n2)c1F [Example 239, 2,6-Difluoro-3-[(5-phenyl-1,2,4-oxadiazol-3-yl)methoxy]benzenecarboxamide]"
< 8,< 8,"NC(=O)c1c(F)ccc(OCc2nc(-c3ccccc3)no2)c1F [Example 240, 2,6-Difluoro-3-[(3-phenyl-1,2,4-oxadiazol-5-yl)methoxy]benzenecarboxamide]"
< 8,< 8,"NC(=O)c1c(F)ccc(OCc2nc(-c3ccc(C(F)(F)F)cc3)no2)c1F [Example 243, 2,6-Difluoro-3-(3-[4-(trifluoromethyl)phenyl]-1,2,4-oxadiazol-5-ylmethoxy)benzenecarboxamide]"
< 8,< 8,"NC(=O)c1c(F)ccc(OCc2nc(-c3ccc(F)cc3)no2)c1F [Example 245, 2,6-Difluoro-3-[3-(4-fluorophenyl)-1,2,4-oxadiazol-5-yl]methoxybenzenecarboxamide]"

SMILES,MIC (Bacillus subtilis 168CA) [µg/mL],MIC [1] [µg/mL]
"NC(=O)c1c(F)ccc(OCCCCO)c1F [Example 178, 2,6-Difluoro-3-(4-hydroxybutoxy)benzenecarboxamide]",16 to 64,16 to 64
